Counter-ions that a name gives are not always drawn. Each block holds one molecule with its values, some of them ahead of it.
How the values were obtained:
[1] = tested on: aggressiveness in isolated mice; assay: Test of aggressiveness in isolated mice; assay type: in vivo; conditions: male CD mice, treatment 30 minutes before test
From the text: This test allows the evaluation of the intraspecies anti-aggressive activity of a product in mice that have been kept in isolation for several months. The test uses male CD mice (Charles River) weighing from 22 to 25 g. On their arrival, the animals are isolated in individual opaque black cages (23×14×13 cm) with a grill lid, and are housed for a prolonged period (approximately six months) in the experimentation room. The selection of aggressive pairs of mice that will be used for an extended period in the study commences after the animals have been isolated for one month. Once or twice per week a mouse from another cage (intruder) is placed in the cage of a (resident) mouse and the two animals are observed to see if they attack one another (sniffing, pursuing, nibbling, biting) during that trial. At the end of the trial (maximum duration 10 minutes), each mouse is isolated again in its own cage. If attacks have occurred, the same pair will be tested again in the next trial; if there have been no attacks, each mouse of that pair will be placed in the presence of another mouse in the subsequent trial. Thus, in the course of successive trials carried out at a rate of 1 or 2 per week, definitive pairs of mice that will be used for the experiments are selected. […] The latent period (in seconds) of the first attack and the number and total duration (in seconds) of the attacks are recorded. […]

[2] = target: T1, serotonin reuptake sites (Rattus norvegicus, UniProt P31652); assay: Affinity for serotonin reuptake sites, [3H]-paroxetine competition; assay type: binding; conditions: rat frontal cortex membranes, read-out: pKi, serotonin reuptake sites (converted)
T1 construct: The membranes are prepared from rat frontal cortex; from tissue; host or cells: rat frontal cortex membranes
T1 sequence (P31652 whole entry): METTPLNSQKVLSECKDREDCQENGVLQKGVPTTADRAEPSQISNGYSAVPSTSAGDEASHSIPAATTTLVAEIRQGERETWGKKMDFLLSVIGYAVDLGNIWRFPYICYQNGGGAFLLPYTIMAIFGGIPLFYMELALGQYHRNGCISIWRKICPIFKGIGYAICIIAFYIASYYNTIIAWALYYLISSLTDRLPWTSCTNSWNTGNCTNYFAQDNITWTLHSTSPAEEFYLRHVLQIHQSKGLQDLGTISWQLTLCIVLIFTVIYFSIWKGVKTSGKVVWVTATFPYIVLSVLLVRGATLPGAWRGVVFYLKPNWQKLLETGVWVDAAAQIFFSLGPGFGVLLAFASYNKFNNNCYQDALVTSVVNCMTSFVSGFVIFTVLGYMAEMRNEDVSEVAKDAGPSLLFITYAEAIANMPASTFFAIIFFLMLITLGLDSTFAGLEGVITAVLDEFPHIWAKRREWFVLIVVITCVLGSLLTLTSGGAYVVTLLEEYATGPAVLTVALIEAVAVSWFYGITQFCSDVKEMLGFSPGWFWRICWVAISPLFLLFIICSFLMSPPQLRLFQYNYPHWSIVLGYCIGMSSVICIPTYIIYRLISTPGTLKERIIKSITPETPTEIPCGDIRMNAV
Procedure: The affinity was determined by competition experiments using [^3H]-paroxetine (NEN, Les Ulis, France). The membranes are prepared from rat frontal cortex and are incubated in triplicate for 2 hours at 25° C. with 1.0 nM [^3H]-paroxetine and cold ligand in a final volume of 0.4 ml. The incubation buffer contains […] TRIS-HCl (pH 7.4), 120 mM NaCl and 5 mM KCl. The non-specific binding is determined using 10 μM citalopram. At the end of the incubation, the incubation medium is filtered and washed three times with 5 ml of cooled buffer. The radioactivity retained on the filters is determined by liquid scintillation counting. The binding isotherms are analysed by non-linear regression to determine the IC50 values. Those values are converted into a dissociation constant (Ki) using the Cheng-Prusoff equation: […]
wherein L is the concentration of [^3H]-paroxetine and Kd is the dissociation constant of [^3H]-paroxetine from the serotonin reuptake site (0.13 nM). The results are expressed in pKi.

[3] = tested on: marble-burying behaviour of mice; assay: Marble-burying test in mice; assay type: in vivo; conditions: male NMRI mice, 30 minutes' exploration
From the text: This test enables evaluation of the capacity of pharmacological agents to inhibit the spontaneous marble-burying behaviour of mice, the inhibition being predictive of antidepressant and/or anti-impulsive action. Male mice of the NMRI strain (Iffa-Credo, 1'Arbresle, France) weighing from 20 to 25 g on the day of the experiment are placed individually in Macrolon boxes (30×18×19 cm) containing 5 cm of sawdust and covered with a perforated plexiglass plate. Twenty four “tiger's eye” glass marbles are evenly distributed on the sawdust at the periphery of the box. At the end of 30 minutes' free exploration, the animals are removed from the box and the number of buried marbles is counted.

[4] = tested on: serotonin level; assay: Microdialysis experiment in the rat (frontal cortex); assay type: in vivo; conditions: 10 mg/kg subcutaneously, cingulate frontal cortex dialysate
Procedure: Rats are anaesthetised with pentobarbital (60 mg/kg i.p.). They are placed in a Kopf stereotactic device and the cannula guide is implanted in the cingulate frontal cortex in accordance with the coordinates described in the Paxinos and Watson atlas (1982) as follows: AP=+2.2; L=±0.6; DV=−0.2. The rats are placed in separate cages and are not used in dialysis until 5 days later. […] The probe is perfused at a flow rate of 1 μl/min. with a solution of 147.2 mM NaCl, 4 mM KCl and 2.3 mM CaCl2 adjusted to pH 7.3 with a phosphate buffer (0.1 M). Two hours after implantation, samples are collected every 20 minutes for 4 hours. Three baseline samples are taken before administration of the products to be tested. The rats are left in their individual cages for the whole of the experiment. When the experiment is finished, the rats are decapitated and the brain is removed and frozen in isopentane. […]
The simultaneous quantification of dopamine, norepinephrine and serotonin is carried out as follows: 20 μl dialysis samples are each diluted with 20 μl of mobile phase (NaH2PO4: 75 mM; EDTA: 20 μM; sodium 1-decanesulphonate: 1 mM; methanol: 17.5%; triethylamine: 0.01%; pH: 5.7) and 33 μl samples are analysed by HPLC using a reverse phase column thermostatically maintained at 45° C. and quantified by means of a coulometric detector. […]

[5] = target: T2, 5-HT1A receptors (Homo sapiens, UniProt P08908); assay: Affinity for 5-HT1A receptors, [3H]-8-OH-DPAT competition; assay type: binding; conditions: membranes from CHO cells transfected with 5HT1A receptor, read-out: pKi, 5-HT1A receptor (converted)
T2 construct: expressed in transfected cells; host or cells: CHO cells
T2 sequence (P08908 1-422): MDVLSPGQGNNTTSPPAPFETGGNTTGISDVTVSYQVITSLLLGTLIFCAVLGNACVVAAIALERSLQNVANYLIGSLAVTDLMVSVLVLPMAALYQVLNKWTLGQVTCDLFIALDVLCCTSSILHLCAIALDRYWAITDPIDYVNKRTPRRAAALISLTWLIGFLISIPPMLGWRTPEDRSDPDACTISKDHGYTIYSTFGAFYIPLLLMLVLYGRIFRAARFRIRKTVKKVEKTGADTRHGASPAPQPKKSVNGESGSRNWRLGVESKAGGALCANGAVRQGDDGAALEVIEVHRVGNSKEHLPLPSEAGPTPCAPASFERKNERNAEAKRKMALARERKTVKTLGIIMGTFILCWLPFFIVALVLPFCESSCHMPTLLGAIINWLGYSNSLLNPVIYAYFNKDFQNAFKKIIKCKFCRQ
Procedure: The affinity was determined by competition experiments using [^3H]-8-OH-DPAT (NEN, Les Ulis, France). The membranes, prepared from CHO cells transfected with 5HT1A receptor, were prepared as described in Neuropharmacol., 1997, 36, 451-459. The membranes were incubated in triplicate for two and a half hours at 25° C. with 0.4 nM [^3H]-8-OH-DPAT and cold ligand in a final volume of 1.0 ml. The incubation buffer contains 50 mM HEPES-NaOH (pH 7.4) and 5 mM MgCl2. The non-specific binding is determined using 10 μM 5-HT. At the end of the incubation, the incubation medium is filtered through filters impregnated with 0.1% polyethyleneimine and washed three times with 5 ml of cooled buffer. The radioactivity retained on the filters is determined by liquid scintillation counting. The binding isotherms are analysed by non-linear regression to determine the IC50 values. Those values are converted into a dissociation constant (Ki) using the Cheng-Prusoff equation: […]
wherein L is the concentration of [^3H]-8-OH-DPAT and Kd is the dissociation constant of [^3H]-8-OH-DPAT from the 5HT1A receptor (0.65 nM). The results are expressed in pKi.

melting point: 175 to 181 °C
SMILES: c1ccc2cc(CCN3CCN(c4nccc5ccoc45)CC3)ccc2c1 (as salt: fumarate) [Example 30, 7-{4-[2-(2-Naphthyl)ethyl]-1-piperazinyl}furo[2,3-c]pyridine]

Ki [2]: < 31.6 nM | Ki [5]: < 31.6 nM
SMILES: c1ccc2c(CCN3CCC(c4nccc5occc45)CC3)cccc2c1 [Example 7, 4-{1-[2-(1-Naphthyl)ethyl]-4-piperidinyl}furo[3,2-c]pyridine]
Inhibitory Dose 50, aggressiveness in isolated mice [1]: less than 1.5 mg/kg i.p. | Marble-burying in mice, ID50 [3]: 1.64 mg/kg s.c. | increase of the level of serotonin (maximum % of the effect compared with the baseline level defined as 0%) [4]: 140.5±15.2%

SMILES: c1cc2occc2c(N2CCN(CCc3ccc4c(c3)CCO4)CC2)n1 [Example 11, 4-{4-[2-(2,3-Dihydrobenzofuran-5-yl)ethyl]-1-piperazinyl}furo[3,2-c]pyridine]
Marble-burying in mice, ID50 [3]: 0.94 mg/kg s.c.

SMILES: CNCCC(Oc1ccc(C(F)(F)F)cc1)c1ccccc1 (centres unmarked) [fluoxetine, reference compound]
Marble-burying in mice, ID50 [3]: 8.03 mg/kg s.c.

Reference: patent publication US6486171B2, “Piperidine compounds” (Les Laboratoires Servier, priority 1999, dated 2002)
